Legend:
[1] = Determination of brain/plasma ratios for NAD0241 and comparison with NAD0180 (Example 56E); type: in vivo, Wistar Han Rats; settings: rats, 5 mg/kg i.v., 1 hour post-administration
Procedure: Application of Compound: 5 mg/kg of NAD 241 and NAD0180 each in a vehicle of 1.5 mL/kg PEG 400 Macrogol Ph. Eur. were applied i.v. through the femoral vein to two groups (n=3) of Wistar Han Rats weighing between 240-270 g. The application was performed under anaesthesia, initiated with 3.5% Isofluorane/O2, then maintained at 1% during compound application and suture of the vein. 200 μL of local anaesthetic lidocaine were locally administered. 1 hour after application of the compound 200 μl of blood were obtained by tail vein incision. Immediately following the blood sampling rats were terminated by decapitation after brief CO2 anaesthesia Brains were resected and weighed. Plasma was obtained by centrifugation of the tail vein blood at 13000 g for 20 minutes at 4° C. […]
Establishment of Extraction Recovery and Standard Curve for NAD0241 and NAD0180: 100 μL of plasma or 0.5 g brain tissue homogenate in saturated NaCl, obtained from control rats, were spiked with NAD0241 and NAD0180, respectively, to produce concentrations ranging from 1 ng/mL to 5 μg/mL. […] Quantitative analysis of the extracts was performed by HPLC with fluorescence detection. […] Fluorescence detection and quantitation by peak area was performed with a G1321A (Agilent Tech 1100 series) detector at excitation and emission wavelengths of 317 nm and 542 nm, respectively, for NAD0241, and 315 nm and 565 nm for NAD0180. […]

[2] = Determination of brain/plasma ratios for K252a and NAD002 for comparison with NAD0241 (Example 56F); type: in vivo, Wistar Han Rats; settings: rats, 1 hour post-administration
Procedure: Application of Compound: 5 mg/kg of NAD 241 and NAD0180 each in a vehicle of 1.5 mL/kg PEG 400 Macrogol Ph. Eur. were applied i.v. through the femoral vein to two groups (n=3) of Wistar Han Rats weighing between 240-270 g. The application was performed under anaesthesia, initiated with 3.5% Isofluorane/O2, then maintained at 1% during compound application and suture of the vein. 200 μL of local anaesthetic lidocaine were locally administered. 1 hour after application of the compound 200 μl of blood were obtained by tail vein incision. Immediately following the blood sampling rats were terminated by decapitation after brief CO2 anaesthesia Brains were resected and weighed. Plasma was obtained by centrifugation of the tail vein blood at 13000 g for 20 minutes at 4° C. Prior art compounds […] and NAD002 and were assessed using identical conditions of application as used in example 56E to provide a direct comparison with NAD0241 for the ability to penetrate the blood-brain barrier. Volumes of injection for all compounds (including NAD0241) was fixed at 2.3 mL/kg, in average about 500-600 μL per animal. The other parameters were left unchanged. Sampling of body fluids and brain tissue was performed as described in example 56E. Extraction of compounds from brain and plasma was performed as described in example 56E but no concentrated ammonia solution was added prior to extraction of […] and NAD002. HPLC analysis of […] was performed on a 5 μm Merck RP 18 Select B 12.5×4.6 mm column at a flow rate of 0.75 mL/min with isocratic elution by acetonitrile/water 60/40 (v/v). Fluorescent excitation/emission was at 284 nm/476 nm. NAD002 was analyzed on a C 18 shield symmetry 25×4.6 mm (Waters and Owen) at 40° C. using excitation/emission wavelengths of 315/565 nm. Quantitations were performed as under example 56E.

brain/plasma ratio fold difference vs NAD0180 at 1 h ([1]; Wistar Han, rat, brain and plasma, iv): > 30 fold | ability to pass the BBB / blood-brain barrier penetration ([1]; NAD0241 vs NAD0180): pass more readily the BBB | Kp at 1 h ([2]; Wistar Han, rat, brain and plasma, iv, 5 mg/kg, 5 mg/kg i.v., 2.3 mL/kg PEG 400, read-out: brain/plasma ratio): ~1 | brain concentration compared with NAD002 [2]: Significantly higher | improvement of brain/plasma ratio over K252a [2]: about two-fold | improvement of brain/plasma ratio over NAD002 [2]: several-fold | plasma levels compared with NAD002 and K252a [2]: Lower
SMILES: NC(=O)[C@]1(N)CC2CC1n1c3ccccc3c3c4c(c5c6ccccc6n2c5c31)C(=O)NC4=O (mixture of isomers) [Compound 5]
